Data published in patent US9408828B2, “(+)-3′-angeloyloxy-4′-keto-3′,4′-dihydroseselin for treating inflammation” (Hong Kong Baptist University, priority 2014, dated 2016).
≈ marks a conversion by molar mass, not a printed value.

Key:
TNF-α = assay: ELISA of TNF-α in colon tissue, DSS-induced colitis; format: in vivo, C57BL/6 mice; settings: compared with the DSS treatment group
Experimental: Colon levels of cytokines are assayed using commercially available ELISA kits. Briefly, colon samples are homogenized in phosphate buffer containing 0.05% Tween-20, 0.1 mM phenylmethylsulfonyl fluoride, 0.1 mM benzethonium chloride, 10 mM EDTA, and 20 IU aprotinin A. The homogenates are centrifuged at 16000 g at 4° C. for 15 min, and the supernatants are collected for the determination of levels of the cytokines, IL-6, IL-4, TNF-α, and IFN-γ, according to the manufacturer's protocols. The amount of protein in each sample is measured by the Bradford method, using bovine serum albumin as a standard. The levels of each cytokine are evaluated in each sample and expressed in […].
Colitis is induced in all groups except the control group. Pd-Ib and sulfasalazine are administered to mice from day 6 to day 12. On day 13, the mice are sacrificed, Data are expressed as mean±SEM, n=8 (*p<0.05, **p<0.01, ***p<0.001, compared with DSS model group).

IκB-α = assay: Western blot of IκB-α degradation in LPS-stimulated RAW-Blue cells; format: cell-based, murine; settings: LPS 1 μg/mL, Pd-Ib 5, 10, 20 μg/mL, 20 h; compared to LPS-stimulated macrophage
Experimental: Data are derived from three independent experiments and presented as mean±SEM. ^#Compared with control group. *P<0.05 is compared with LPS-alone group.
After Raw-Blue cells are treated with LPS and Pd-Ib, whole cell extract is prepared with lysis buffer [1% Triton X-100, 0.1% SDS, 0.5% deoxycholate, 1 mM EDTA, 20 mM Tris (pH 7.4), 150 mM NaCl, 10 mM NaF, 1 mM Na3VO4, 0.1 mM phenylmethylsulfonyl fluoride and one protease inhibitor cocktail tablet (Roche, USA)]. Total protein concentration is measured using a protein assay kit, followed by centrifugation at 13,500 rpm for 15 minutes at 4° C., then 10-25 μg of protein from the supernatants is then separated on 10% sodium dodecylsulphate-polyacrylamide gel (SDS-PAGE) and transferred on to polyvinylidene difluoride membranes. After blocking with 5% skim milk powder in Tris-buffered saline-Tween (TBST; 50 mM Tris, 150 mM NaCl, pH 7.4; 0.01% Tween-20) for 1 hour at room temperature, the membrane is then incubated with primary antibody (1:5,000 dilution) in 5% skim milk in TBST overnight at 4° C. […] The membrane is rewashed (TBST; 3×10 min), and the immune-reactive proteins are detected by enhanced chemiluminescence using X-ray film and ECL reagent. The protein bands are quantified by measuring the relative intensity compared to the control using Image J Software (version 4.1.7, NIH, USA).

NF-κB = assay: Anti-inflammatory bioassay (Quanti-Blue assay), SEAP activity; format: cell-based, murine; settings: Mus musculus, Macrophage; LPS-stimulated macrophages; read-out: IC50, inhibition of SEAP activity
Experimental: RAW-Blue cells (5×10^4) are cultured in 96-well plate for 24 hours, and then treated with LPS (1 μg/mL) alone or together with test samples for 20 hours. Secreted embryonic alkaline phosphatase (SEAP) activity in the conditioned medium is determined using QUANTI-Blue medium following manufacturer's manual. Briefly, 100 μL samples are added to 200 μL of QUANTI-Blue medium and incubated at 37° C. for 15 to 30 minutes. Absorbance is measured at 620 nm using a micro-plate reader (Benchmark plus Bio-Red, CA, USA) and fold change in SEAP activity is calculated accordingly.
Raw-Blue cells are derived from RAW264.7 macrophages. Then the murine macrophage cell line of Raw-Blue cells is cultured in plastic dishes containing DMEM supplemented with 100 U/mL of penicillin, 100 μg/mL of streptomycin and 10% FBS in an incubator (5% CO2) at 37° C. Cells are sub-cultured every 3 days at a dilution of 1:6.
The SEAP activity in the supernatants of LPS-stimulated RAW-Blue cells reflects the activation of NF-κB. The inhibition of the NF-κB activation can associate with mitigation of colon inflammation responses and apoptosis of intestinal epithelial cells in DSS mouse model. Western blotting and immunofluorescence analysis are performed to determine whether Pd-Ib depressed NF-κB activation. […]

NF-κB p65 = assay: Immunofluorescence staining of NF-κB nuclear translocation; format: cell-based, murine; settings: 5-20 μg/mL pretreatment 2 hours, LPS 1 μg/mL 20 hours
Experimental: Data are derived from three independent experiments. Original magnification, 40×.
Raw-Blue cells are cultured (20×10^4 cells/well) on glass coverslips and incubated for 24 hours. Cells are pretreated with various concentrations (5-20 μg/mL) of Pd-Ib for 2 hours. Then treated with LPS (1 μg/mL) for 20 hours. Subsequently, the coverslips are rinsed twice with PBS, and cells are fixed in 4% paraformaldehyde (PFA) in PBS at room temperature for 15 minutes. Cellular and nuclear membranes of the macrophages are permeabilized by treatment with 3% Triton X-100 in PBS for 15 minutes. After being blocked with 3% bovine serum albumin (BSA) in PBS for 1 hour, the cells is incubated with primary antibody in 3% BSA/PBS (1:500 dilution) at 4° C. overnight. After washing with PBS, the cells are incubated with the red-conjugated secondary antibody (1:500 dilution) in 3% BSA/PBS at room temperature for 1 hour and finally washed again for three time with PBS. Then, counter-staining is performed with DAPI (1:1,000 dilution) in 3% BSA/PBS nucleus with for 10 minutes. The cells are washed for three times with PBS, and then anti-fade mounting medium is added. Samples are observed under a fluorescence microscope.

IC50 (NF-κB): 22.5 µg/mL (≈ 65.8 µM)
SMILES: C/C=C(\C)C(=O)OC1C(=O)c2c(ccc3ccc(=O)oc23)OC1(C)C (single isomer, unassigned; (+)) [Pd-Ib, (+)-3′-Angeloyloxy-4′-keto-3′,4′-dihydroseselin]
production of TNF-α in colon tissue (TNF-α): greatly reduces the production
IκB-α degradation (IκB-α): inhibits IκB-α degradation in a dose-dependent manner
p65 nuclear translocation (NF-κB p65): significantly inhibits the p65 nuclear translocation
